In US7935341B2, “Antibodies to complementary peptides of thrombin or portions thereof” (Orthologic Corp., priority 2005, dated 2011):
No end group written: not given here.

Target: T1, biotinylated thrombin ([B]-thrombin) (Homo sapiens, UniProt P00734)
T1 construct: present in blood plasma in the form of a precursor, pro-thrombin
Experiment: Binding of biotinylated thrombin to complementary peptides coated on ELISA plates
Settings: for specific binding of [B]-thrombin to the complementary peptide: peptide-coated ELISA plate, total minus nonspecific binding (excess unlabeled thrombin), HRP-avidin readout at 450 nm
Method: Complementary peptides (CPs) (AC-23, 23C53, C1053 and ND1053) were coated onto individual wells of 96 well plates by incubating in a 10 μg/ml solution of peptide in carbonate buffer (pH 9.5) or in Phosphate Buffered Saline (PBS) overnight at room temperature. The amino acid sequences of particular complementary peptides are described below and are depicted in FIG. 4. In particular, the following CPs were generated:
Prior to use, the wells were covered with blocking solution containing 0.1% bovine serum albumin (BSA) to reduce non-specific binding. The plates were rinsed and stored at 4° C. until used. To perform the binding experiments, the peptide-coated ELISA plates were blocked with 200 μl per well of blocking buffer (0.1% BSA (w/v) in PBS) for 90 minutes at room temperature. The plates were subsequently rinsed two times with distilled water. Total and nonspecific (NS) binding was determined, respectively, by adding 100 μl per well of 125 ng/ml of biotinylated thrombin ([B]-thrombin) alone or containing 12.5 μg/ml of unlabeled thrombin for 90 minutes at room temperature. The plates were then rinsed four times with PBSTT (PBS+0.5% v/v Tween 20 (polyoxyethylene sorbitan monolaurate)), and 100 μl of Avidin-HRP antibody (Becton Dickinson) diluted to 1:1000 was added per well for 120 minutes at room temperature. The plates were subsequently rinsed four times with PBSTT, and 100 μl of Turbo TMB substrate (Pierce) was added for 30 minutes at room temperature. The reaction was stopped by adding 100 μl per well of 1 N H2SO4 and the plates were read immediately at 450 nm using a Spectra Max Plus plate reader (Molecular Device). The specific binding of [B]-thrombin to the coated wells was determined by subtracting non-specific binding from total binding.
Specific thrombin binding was determined using indicated concentrations of biotinylated thrombin alone and with a 100-fold excess of unlabeled thrombin (to define nonspecific binding).

Row | Sequence | EC50 (increasing concentrations of [B]-thrombin on AC-23-coated wells, n=2±SD, read-out: half maximal binding of [B]-thrombin) [nM] | specific binding of [B]-thrombin to the complementary peptide
1 | KGSPTVTFTGIPCFPFIRLVTS [AC-23] | 4.8 ± 0.2 | specifically bound
2 | KGSPTVTFTGIPSFPFIRLVTS (complementary peptides) [23C53] | – | specifically bound
3 | TFTGIPSFPF (complementary peptides) [10C53] | – | not
